Test [1] has as its system low density lipoprotein (LDL). The test can be described thus: Inhibition of Cu2+-induced oxidation of LDL (lipid peroxides, FOX assay). The test is classed as biochemical. As to the method:
Blood was collected by venipuncture and plasma separated by centrifugation. LDL was then isolated from plasma using a 4-step sodium chloride density gradient and ultracentrifuged at 200,000 g for 20 hours at 4° C. The collect LDL was purified by passage through gel filtration PD10 column to remove excess salt and EDTA, and stored in the dark at 4° C. to prevent auto-oxidation and used with two weeks of isolation. The LDL cholesterol content was measure using a standard enzymatic method and protein concentration determined by the Lowry method using BSA as the standard.
[…] Oxidation reactions were initiated by the addition of freshly prepared Cu^2+ solution, such that the final concentration of CuSO4 was 5 μM. […] The extent of lipoprotein oxidation was determined by measuring the formation of lipid-peroxides on aliquots removed every 30-minute over a 3-hour period. Peroxides were determined at each time point by the ferrous oxidation-xylenol orange (FOX) assay using standard hydrogen peroxide curve (5 to 200 μM). Compounds (1) and (2) were examined in at least two separate experiments performed on separate days.

Test [2] deals with T cells. Description: T cell proliferation (ConA-stimulated mouse splenocytes, MTT). It counts as cell-based, Skh-1:HR 1 (hairless) mice. As to conditions: 10 μM, 3 days. The method, then: (§1) Male Skh-1:HR 1 (hairless) mice, approximately six weeks old were killed by cervical dislocation. Single cell suspensions were made from the spleen and erythrocytes were lysed in buffer (0.14 M NH4Cl, 17 mM Tris, pH 7.2). The remaining splenocytes were cultured in RPMI-1640 (Gibco) supplemented with 10% (v:v) FBS, 200 mM L-glutamine, penicillin/streptomycin and […] 2-mercaptoethanol. Splenocytes were added to quadruplicate wells containing either concanavalin A (ConA, Sigma-Aldrich—0.4 μg/well), LPS (Sigma-Aldrich—1 μg/well) or no mitogen, as well 10 μM of test compound in DMSO. Samples were analysed after 3 days incubation at 37° C. in 5% CO2 in air. Methylthiazoletetrazolium (MTT) is bioreduced by viable cells into a coloured formazan product that is soluble in DMSO. Thus the quantity of formazan product is directly proportional to the number of living cells in culture, and can be measured using a spectrophotometer at 570 nm. MTT was added to each well, incubated for a further 4 hrs and then colour developed with 0.04 N HCl in isopropanol. Culture supernatants were stored after collection at −80° C. and analysed by ELISA (BD Biosciences) for IFN-γ (a Th-1 cytokine) and for T cells alone, IL-6 (a Th-2 cytokine).

For test [3], the system named is IFN-γ. Description: IFN-γ synthesis by mouse splenocytes (ELISA). The test is classed as cell-based, Skh-1:HR 1 (hairless) mice. Particulars: 10 μM; 3 days. As to the method:
as §1

Test [4] concerns IL-6. Description: IL-6 synthesis by mouse splenocytes (ELISA). The test is classed as cell-based, Skh-1:HR 1 (hairless) mice. As to conditions: 10 μM; 3 days. The method, then:
as §1

The subject of test [5] is Rabbit kidney (RK-13) cells. The test can be described thus: Toxicity to normal cells, rabbit kidney (RK-13) cells. The test is classed as cell-based. Particulars: Oryctolagus cuniculus. As to the method: IC50 values were determined for each cell line. Cells were seeded in 96-well plates at an appropriate cell density as determined from growth kinetics analysis and cultured for 5 days in the absence and presence of the test compounds. Cell proliferation was assessed after the addition of 20 μl of 3-4,5 dimethylthiazol-2,5-diphenyl tetrazolium bromide (MTT, 2.5 mg/ml in PBS, Sigma) for 3-4 hrs at 37° C. according to manufacturer's instructions. IC50 values were calculated from semi-log plots of % of control proliferation on the y-axis against log dose on the x-axis.
The neonatal foreskin fibroblasts (NFF) were a gift from Dr. Peter Parsons (Queensland Institute of Medical Research). Rabbit kidney (RK-13) cells were obtained from Miller Whalley (Macquarie University). Both cell lines were cultured in RPMI supplemented with 10% FCS(CSL, Australia), penicillin (100 U/ml), streptomycin ([…]), L-glutamine (2 mM) and sodium bicarbonate (1.2 g/L), and cultured at 37° C. in a humidified atmosphere of 5% CO2. IC50 values were determined as described above.

For test [6], the system named is caspase-3/7 activity in A7r5 rat aortic smooth muscle cells. Description: Caspase-3/7 activity (apoptosis) in A7r5 rat aortic smooth muscle cells. It counts as cell-based. As to conditions: 10, 50 and 100 μM; FIG. 14. From the text: Activation of the caspase cascade is an integral event in the apoptotic pathway. Caspase-3 is one of the important “executioner” caspase enzymes, triggering the cleavage of numerous proteins that lead to the ordered breakdown of cells. The detection of caspase-3 activation is frequently used as a positive marker for apoptosis. A homogeneous luminescent caspase-3/7 assay, the Caspase-Glo™ 3/7 Assay (Promega Corp.) was used to provide an extremely sensitive measure of caspase activation. VSMC were incubated with different concentrations (0 [vehicle alone], 10, 50 and 100 μM) of test compounds. The assay used a proluminescent substrate containing the DEVD sequence recognized by caspase-3 and -7. The caspase-Glo™ 3/7 Reagent produced luminescence that is directly proportional to the amount of caspase-3/7 activity. The luminescence is linear over four orders of magnitude of caspase concentration and over a broad range of cell densities.

Where two headings read alike, the source gives them in different places.

Consider `CC(c1ccccc1)N1COc2cc3c(cc2C1)C=C(c1ccc(O)cc1)CO3` (stereo not shown) [Compound 2, 4-(3-(1-Phenylethyl)-2,3,4,8-tetrahydrochromeno[6,7-e][1,3]oxazin-7-yl)phenol], for which the EC50 in test [1] (LDL 0.1 mg/mL, CuSO4 5 μM, read-out: EC50, concentration at which 50% of the LDL oxidation was inhibited) was 0.63 µM. Moreover, the lipid peroxide formation in test [1] (LDL 0.1 mg/ml + compound 0.1 μM + Cu^++ 5 μM, 0 min) is listed as 10.5 ± 2.93; in test [1] (LDL 0.1 mg/ml + compound 0.1 μM + Cu^++ 5 μM, 30 min), 13.9 ± 2.51; in test [1] (LDL 0.1 mg/ml + compound 0.1 μM + Cu^++ 5 μM, 60 min) it was 23.7 ± 4.71; in test [1] (LDL 0.1 mg/ml + compound 0.1 μM + Cu^++ 5 μM, 90 min), 75.1 ± 8.43; in test [1] (LDL 0.1 mg/ml + compound 0.1 μM + Cu^++ 5 μM, 120 min), 138.5 ± 2.94; in test [1] (LDL 0.1 mg/ml + compound 0.1 μM + Cu^++ 5 μM, 180 min), 173.7 ± 34.4. The lipid peroxide formation in test [1] (LDL 0.1 mg/ml + compound 1.0 μM + Cu^++ 5 μM, 0 min) is on record as 10.22 ± 2.9; in test [1] (LDL 0.1 mg/ml + compound 1.0 μM + Cu^++ 5 μM, 30 min), 11.62 ± 2.4; in test [1] (LDL 0.1 mg/ml + compound 1.0 μM + Cu^++ 5 μM, 60 min), 12.08 ± 3.2; in test [1] (LDL 0.1 mg/ml + compound 1.0 μM + Cu^++ 5 μM, 90 min) it was 18.25 ± 3.2; in test [1] (LDL 0.1 mg/ml + compound 1.0 μM + Cu^++ 5 μM, 120 min), 35.12 ± 0.4; in test [1] (LDL 0.1 mg/ml + compound 1.0 μM + Cu^++ 5 μM, 180 min), 133.1 ± 18.3. In addition, the lipid peroxide formation in test [1] (LDL 0.1 mg/ml + compound 10 μM + Cu^++ 5 μM, 0 min) was 10.20 ± 2.6; in test [1] (LDL 0.1 mg/ml + compound 10 μM + Cu^++ 5 μM, 30 min), 15.99 ± 0.1; in test [1] (LDL 0.1 mg/ml + compound 10 μM + Cu^++ 5 μM, 60 min) it was 18.26 ± 0.8; in test [1] (LDL 0.1 mg/ml + compound 10 μM + Cu^++ 5 μM, 90 min) it was 20.64 ± 1.3; in test [1] (LDL 0.1 mg/ml + compound 10 μM + Cu^++ 5 μM, 120 min) it was 23.68 ± 1.2; in test [1] (LDL 0.1 mg/ml + compound 10 μM + Cu^++ 5 μM, 180 min) it was 24.6 ± 21.9. Also, the lipid peroxide formation in test [1] (LDL 0.1 mg/ml + compound 100 μM + Cu^++ 5 μM, 0 min) turned out to be 12.09 ± 2.8; in test [1] (LDL 0.1 mg/ml + compound 100 μM + Cu^++ 5 μM, 30 min), 15.93 ± 5.4; in test [1] (LDL 0.1 mg/ml + compound 100 μM + Cu^++ 5 μM, 60 min), 19.40 ± 7.8; in test [1] (LDL 0.1 mg/ml + compound 100 μM + Cu^++ 5 μM, 90 min) it was 23.27 ± 8.7; in test [1] (LDL 0.1 mg/ml + compound 100 μM + Cu^++ 5 μM, 120 min) it was 28.76 ± 5.0; in test [1] (LDL 0.1 mg/ml + compound 100 μM + Cu^++ 5 μM, 180 min), 28.6 ± 12.9. Also, the lipid peroxide formation was 7.69 ± 3.8 in test [1] (compound 100 μM + Cu^++ 5 μM, without LDL, 0 min); 14.97 ± 0.4 in test [1] (compound 100 μM + Cu^++ 5 μM, without LDL, 30 min); 19.19 ± 2.1 in test [1] (compound 100 μM + Cu^++ 5 μM, without LDL, 60 min); 24.30 ± 4.3 in test [1] (compound 100 μM + Cu^++ 5 μM, without LDL, 90 min); 28.31 ± 2.8 in test [1] (compound 100 μM + Cu^++ 5 μM, without LDL, 120 min); 33.20 ± 6.7 in test [1] (compound 100 μM + Cu^++ 5 μM, without LDL, 180 min). Further, the “effect on T cells” value in test [2] is “markedly and significantly immunosuppressive”. For the same compound, in test [3], the “synthesis of INF-γ into the supernatant” value is recorded as “concomitant reduction”. Also, the “synthesis of IL-6 into the supernatant” value in test [4] was “concomitant reduction”. In addition, the 50% inhibitory concentration (IC50) was 53.3 µM in test [5] (normal, non-transformed cells, read-out: IC50 μM, RK Rabbit Kidney) and greater than 30 µM in test [5] (read-out: toxicity to RK-13 cells (IC50)).
Consider `Oc1cccc(C2=Cc3ccc(O)cc3OC2)c1` [Compound 37-DHE, 3′,7-dihydroxy-isoflav-3-ene, reference compound], for which the “induction of caspase-3/7 activity, apoptosis” value in test [6] is “no activity”.
